Where two headings read alike, the source gives them in different places. Where a SMILES comes first, the peptide text is derived from it. [ ]: non-standard residue; d: D form.
Experiments:
cerebral vasospasm [1] = conditions: rat; cited from earlier work
prostate smooth muscle = conditions: in vivo; cited from earlier work
[2] = tested on: pulmonary vascular resistance and pulmonary arterial pressure; conditions: rat hypoxia model of hypertension; cited from earlier work
cerebral vasospasm [3] = conditions: in vivo; cited from earlier work
[4] = tested on: ET-1 induced bronchoconstriction and tracheal smooth muscle contraction; conditions: allergic sheep; cited from earlier work
[5] = tested on: vasoconstriction of the basilar artery; conditions: after 7 days, canine two-hemorrhage model of SAH; cited from earlier work
human ETB R = target: T1, human ETB R (Homo sapiens, UniProt P24530); assay: [125I]-ET-1 radioligand binding assay, CHO-K1 cells expressing recombinant human ETB R (HERBA-B); conditions: CHO cell membranes, [125I]-ET-1 40 pM, 2 hours at 37° C
T1 construct: expressed in transfected cells; host or cells: CHO-K1 cells, membranes
T1 sequence (P24530 27-442): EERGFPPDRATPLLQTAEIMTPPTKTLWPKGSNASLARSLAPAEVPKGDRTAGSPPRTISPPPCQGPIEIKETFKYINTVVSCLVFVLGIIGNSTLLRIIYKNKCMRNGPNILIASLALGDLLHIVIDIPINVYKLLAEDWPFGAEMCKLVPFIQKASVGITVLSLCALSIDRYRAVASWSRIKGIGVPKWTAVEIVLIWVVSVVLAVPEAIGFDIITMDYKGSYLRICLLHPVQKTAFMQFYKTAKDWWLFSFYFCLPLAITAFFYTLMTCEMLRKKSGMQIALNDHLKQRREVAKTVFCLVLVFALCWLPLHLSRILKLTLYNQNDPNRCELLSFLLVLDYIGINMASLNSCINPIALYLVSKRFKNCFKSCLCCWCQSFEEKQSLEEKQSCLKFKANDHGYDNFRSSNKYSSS
Excerpt: The compounds of Formula I are valuable as antagonists of endothelin.
The following radioligand binding assays were used (Reynolds E. E.; Keiser J. A.; Haleen S. J.; Walker D. M.; Davis L. S.; Olszewski B.; Taylor D. G.; Hwang O.; Welch K. M.; Flynn M. A.; Thompson D. M.; et. al., J. Pharmacol. Exp. Ther., 1995;273:1410-1417).
The following cultured cells were used in binding experiments: CHO-KL cells expressing recombinant human ETB R (HERBA B), or Ltk- cells expressing human ETA R (HERBA A). […] Membranes were prepared from cultured cells by lysing cells in cold lysis buffer (5 mM HEPES, 2 mM EDTA, pH 7.4) and homogenizing with a Dounce "A" homogenizer. All of the homogenates were centrifuged at 30,000×g for 20 minutes at 4° C. Membrane pellets were resuspended in cold buffer containing 20 mM Tris, […], 200 μM Pefablock, 10 μM phosphoramidon, 10 μM leupeptin, and 1 μM pepstatin (pH 7.4) and frozen at -80° C. until use. Radioligand and competing ligands were prepared in binding buffer containing 20 mM Tris, 2 mM EDTA, and 0.1% BSA.
Competition binding assays were initiated by combining membranes, [^125 ]-ET-1 (40 pM) and competing ligand in a final volume of 250 μL and incubating for 2 hours at 37° C. The assay was terminated by filtration over Whatman GF/B filters that were presoaked with 50 mM Tris, pH 7.4, containing 0.2% BSA and 100 μM bacitracin. […] was defined as total binding minus nonspecific binding. Specific binding was analyzed by nonlinear least squared curve fitting (InPlot, GraphPad Software, San Diego, Calif.), and the estimated IC50 value was used to calculate Ki according to the method of Cheng and Prusoff (1973).

human ETA R = target: T2, human ETA R (Homo sapiens, UniProt P25101); assay: [125I]-ET-1 radioligand binding assay, Ltk- cells expressing human ETA R (HERBA-A); conditions: Ltk- cell membranes, [125I]-ET-1 40 pM, 2 hours at 37° C
T2 sequence (P25101 21-427): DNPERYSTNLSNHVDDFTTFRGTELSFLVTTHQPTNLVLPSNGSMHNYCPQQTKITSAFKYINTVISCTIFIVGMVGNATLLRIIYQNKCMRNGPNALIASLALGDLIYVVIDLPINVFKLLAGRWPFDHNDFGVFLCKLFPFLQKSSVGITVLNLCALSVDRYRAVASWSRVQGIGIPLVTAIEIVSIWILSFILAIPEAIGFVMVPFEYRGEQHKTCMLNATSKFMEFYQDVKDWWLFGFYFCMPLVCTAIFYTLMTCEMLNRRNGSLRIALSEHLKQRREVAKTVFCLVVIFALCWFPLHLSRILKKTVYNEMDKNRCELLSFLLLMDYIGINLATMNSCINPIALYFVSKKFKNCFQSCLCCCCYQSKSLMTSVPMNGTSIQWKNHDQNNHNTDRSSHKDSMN

[6] = tested on: endothelin-stimulated arachidonic acid release in rabbit renal artery vascular smooth muscle cells; assay: inhibition of ET-1 stimulated arachidonic acid release (AAR) in cultured rabbit renal artery vascular smooth muscle cells; type: cell-based; conditions: Oryctolagus cuniculus, 0.5 h, read-out: AAR-A
ischemic brain injury = conditions: rats, oral; cited from earlier work
neointima formation = conditions: rats, carotid artery balloon angioplasty; cited from earlier work
[7] = oral; cited from earlier work
[8] = tested on: ischemic damage in the cerebral hemisphere; conditions: cats, middle cerebral artery occlusion, IV; cited from earlier work
[9] = tested on: ET-1-induced changes in gastric mucosal hemodynamics and gastric ulceration; conditions: in vivo; cited from earlier work
acute renal ischemia = conditions: models of acute renal ischemia; cited from earlier work
chronic heart failure = conditions: patients with chronic heart failure; cited from earlier work

For `COc1cccc(Oc2c(NS(=O)(=O)c3ccc(C(C)(C)C)cc3)ncnc2OCCO)c1` [Ro 46-2005], the “early cerebral vasospasm following SAH” value (cerebral vasospasm [1]) is listed as “shown to prevent early cerebral vasospasm”.

In the case of `COc1ccc(C2(O)OC(=O)C(c3ccc4c(c3)OCO4)=C2Cc2ccccc2)cc1` (centres unmarked) [PD 155080], the “prostate smooth muscle function” value (prostate smooth muscle) is given as “found to mediate prostate smooth muscle function in vivo”.

For `CC(C)C[C@@H]1NC(=O)[C@@H](C(C)C)NC(=O)[C@@H]2CCCN2C(=O)[C@@H](CC(=O)O)NC(=O)[C@@H](Cc2c[nH]c3ccccc23)NC1=O` [BQ-123] (cyclo(L[dW][dD]P[dV])), the “protection / increase in pulmonary vascular resistance and pulmonary arterial pressure” value (“protection / increase” below) [2] is listed as “provide protection in a rat hypoxia model of hypertension”, the “early cerebral vasospasm following SAH” value (cerebral vasospasm [3]) is listed as “shown to prevent early cerebral vasospasm” and the “ET-1 induced bronchoconstriction and tracheal smooth muscle contraction” value [4] is listed as “shown to block ET-1 induced bronchoconstriction and tracheal smooth muscle contraction”.

In the case of FR 139317, the “vasoconstriction of the basilar artery” value [5] is given as “significantly inhibited the vasoconstriction of the basilar artery”.

`COc1ccc(C2(OCCN3CCOCC3)OC(=O)C(c3ccc4c(c3)OCO4)=C2Cc2cc(OC)c(OC)c(OC)c2)cc1` (centres unmarked) [Example 1] gave an IC50 (human ETB R) of 12000 nM, an IC50 (human ETA R) of 2.8 nM and an IC50 ([6]; ET-1 0.3 nM, test compound 1 nM to 1 μM, 30 minutes) of 10 nM.

In the case of `COc1ccc(C2(OCCN3CCOCC3)OC(=O)C(c3cc(OC)c4c(c3)OCO4)=C2Cc2cc(OC)c(OC)c(OC)c2)cc1` (centres unmarked) [Example 5, 3-(7-Methoxy-benzo[1,3]dioxol-5-yl)-5-(4-methoxy-phenyl)-5-(2-morpholin-4-yl-ethoxy)-4-(3,4,5-trimethoxy-benzyl)-5H-furan-2-one], the IC50 (human ETB R) is reported as 700 nM and the IC50 (human ETA R) is reported as 1.7 nM.

Molecule `COc1ccc(C2(OCCCS(=O)(=O)O)OC(=O)C(c3ccc4c(c3)OCO4)=C2Cc2cc(OC)c(OC)c(OC)c2)cc1` (centres unmarked) has an IC50 (human ETB R) of 1900 nM, an IC50 (human ETA R) of 0.15 nM and an IC50 [6] of 0.3 nM.

For `CCCOc1ccc2c(c1)C(c1ccc(OC)cc1OCCO)C(C(=O)O)C2c1ccc2c(c1)OCO2` (centres unmarked) [SB 217242], the ischemic brain injury (ischemic brain injury) is listed as “Reduction of ischemic brain injury”.

With `COc1ccc(C2(OCCCN(C)C)OC(=O)C(c3ccc4c(c3)OCO4)=C2Cc2cc(OC)c(OC)c(OC)c2)cc1` (centres unmarked) [Example 3, 3-Benzo[1,3]dioxol-5-yl-5-(3-dimethylamino-propoxy)-5-(4-methoxy-phenyl)-4-(3,4,5-trimethoxy-benzyl)-5H-furan-2-one] the IC50 (human ETB R) was > 2500 nM and the IC50 (human ETA R) was 12 nM.

For `CCCOc1ccc2c(c1)C(c1ccc(OC)cc1OCC(=O)O)C(C(=O)O)C2c1ccc2c(c1)OCO2` (single isomer, unassigned) [SB 209670], the neointima formation (neointima formation) is listed as “found to ameliorate neointima formation”.

For `COc1ccc(C2(OCCN(C)C)OC(=O)C(c3cc(OC)cc(OC)c3)=C2Cc2cc(OC)c(OC)c(OC)c2)cc1` (centres unmarked) [Example 6], the IC50 (human ETB R) was 2200 nM and the IC50 (human ETA R) was 2.6 nM.

In the case of `COc1ccc(C2(OCCN(C)C)OC(=O)C(c3ccc4c(c3)OCO4)=C2Cc2cc(OC)c(OC)c(OC)c2)cc1` (centres unmarked) [Example 4, 3-Benzo[1,3]dioxol-5-yl-5-(2-dimethylamino-ethoxy)-5-(4-methoxy-phenyl)-4-(3,4,5-trimethoxy-benzyl)-5H-furan-2-one], the IC50 (human ETB R) is reported as 1080 nM and the IC50 (human ETA R) is reported as 0.3 nM.

In the case of `Cc1noc(NS(=O)(=O)c2cccc3c(N(C)C)cccc23)c1C` [5-(Dimethylamino)-N-(3,4-dimethyl-5-isoxazolyl)-1-naphthalenesulfonamide], the antihypertensive effect [7] is listed as “demonstrated an oral antihypertensive effect”.

For `COc1ccc(C2(O)OC(=O)C(c3ccc4c(c3)OCO4)=C2Cc2cc(OC)c(OC)c(OC)c2)cc1` (centres unmarked) [PD 156707], the “protection / increase” value [2] is given as “provide protection in a rat hypoxia model of hypertension” and the “volume of ischemic damage in the cerebral hemisphere” value [8] is given as “significantly reduced”.

For `COc1ccccc1Oc1c(NS(=O)(=O)c2ccc(C(C)(C)C)cc2)nc(-c2ncccn2)nc1OCCO` [Bosentan], the “protection / increase” value [2] is given as “provide protection in a rat hypoxia model of hypertension”, the “ET-1-induced changes in gastric mucosal hemodynamics and ET-1-induced gastric ulceration” value [9] is given as “found to be an antagonist toward the ET-1-induced changes in gastric mucosal hemodynamics as well as on ET-1-induced gastric ulceration” and the “efficacy in acute renal ischemia” value (acute renal ischemia) is given as “effective in models of acute renal ischemia”. The cardiac performance (chronic heart failure) was “found to improve cardiac performance”.

From patent US6133263A, “Endothelin antagonists with ether-linked groups” (Warner-Lambert Company, priority 1998, dated 2000)
